Laboratory results published in patent publication US10316017B2, “COT modulators and methods of use thereof” (Gilead Sciences, Inc., priority 2015, dated 2019).

Columns and labels:
[1] = tested on: TNFα production in LPS-stimulated human monocytes; test: Cot Monocyte TNFα Cell Based Assay; settings: Homo sapiens, Monocyte, TNFα in LPS-stimulated human monocytes; read-out: EC50 TNF
In short: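 Human monocytes (5,000 cells/well) pretreated with compound for 1 hour at 37° C (0.5% DMSO), then stimulated with 50 pg/ml LPS for 4 hours. Total TNFα measured by TR-FRET after overnight antibody incubation at room temp, expressed as percent of control between unstimulated and stimulated cells.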

[2] = target: T1, human Cot catalytic domain (30-397 amino acids) (Homo sapiens, UniProt P41279); test: High Throughput Cot Biochemical Assay (KinEASE TR-FRET); settings: Cot biochemical HTRF (KinEASE TR-FRET) assay; read-out: IC50 HTRF
T1 construct: Purified recombinant human Cot catalytic domain (30-397 amino acids) was purchased from Cama Biosciences; purchased Cama Biosciences (so in the source)
T1 sequence (P41279 30-397): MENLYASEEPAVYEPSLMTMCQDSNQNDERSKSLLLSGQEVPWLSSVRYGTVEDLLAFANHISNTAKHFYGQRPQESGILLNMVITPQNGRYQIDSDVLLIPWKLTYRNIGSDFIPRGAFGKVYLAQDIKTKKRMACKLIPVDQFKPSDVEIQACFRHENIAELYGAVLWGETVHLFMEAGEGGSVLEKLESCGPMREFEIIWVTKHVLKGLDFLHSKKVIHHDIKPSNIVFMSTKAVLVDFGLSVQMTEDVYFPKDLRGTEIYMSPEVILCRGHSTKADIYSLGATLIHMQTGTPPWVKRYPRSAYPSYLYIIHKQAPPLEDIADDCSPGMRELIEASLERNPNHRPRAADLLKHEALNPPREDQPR
In short: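 Recombinant human Cot catalytic domain (aa 30-397), 5 nM, with 1 μM STK3 peptide and 400 μM ATP in MOPS pH 7.0 buffer with MgOAc, DTT, BSA, NP-40, glycerol, 0.1% DMSO. Phosphorylated XL665-peptide detected by Eu-[…] antibody TR-FRET.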

COC1CN(C(=O)c2cccc([C@H](Nc3cc(Cl)c4ncc(C#N)c(Nc5ccc(F)c(Cl)c5)c4c3)c3cn(C4CCN(C(C)(C)C)CC4)nn3)c2)C1 [Example 621, (S)-6-(((1-(1-(tert-butyl)piperidin-4-yl)-1H-1,2,3-triazol-4-yl)(3-(3-methoxyazetidine-1-carbonyl)phenyl)methyl)amino)-8-chloro-4-((3-chloro-4-fluorophenyl)amino)quinoline-3-carbonitrile] gave an EC50 [1] of 112 nM and an IC50 [2] of 2 nM.

In the case of CN(C)C1CN(C(=O)c2cccc([C@H](Nc3cc(Cl)c4ncc(C#N)c(Nc5ccc(F)c(Cl)c5)c4c3)c3cn(C4CCN(C(C)(C)C)CC4)nn3)c2)C1 [Example 622, (S)-6-(((1-(1-(tert-butyl)piperidin-4-yl)-1H-1,2,3-triazol-4-yl)(3-(3-(dimethylamino)azetidine-1-carbonyl)phenyl)methyl)amino)-8-chloro-4-((3-chloro-4-fluorophenyl)amino)quinoline-3-carbonitrile], the EC50 [1] is reported as 851 nM and the IC50 [2] is reported as 5 nM.

CC(=O)N(C)c1cccc([C@H](Nc2cc(Cl)c3ncc(C#N)c(Nc4ccc(F)c(Cl)c4)c3c2)c2cn(C3CCN(C(C)(C)C)CC3)nn2)c1 [Example 623, (S)-N-(3-((1-(1-(tert-butyl)piperidin-4-yl)-1H-1,2,3-triazol-4-yl)((8-chloro-4-((3-chloro-4-fluorophenyl)amino)-3-cyanoquinolin-6-yl)amino)methyl)phenyl)-N-methylacetamide] was tested, and the EC50 [1] was 90 nM and the IC50 [2] was 1 nM.

CC(=O)Nc1cccc([C@H](Nc2cc(Cl)c3ncc(C#N)c(Nc4ccc(F)c(Cl)c4)c3c2)c2cn(C3CCN(C(C)(C)C)CC3)nn2)c1 [Example 624, (S)-N-(3-((1-(1-(tert-butyl)piperidin-4-yl)-1H-1,2,3-triazol-4-yl)((8-chloro-4-((3-chloro-4-fluorophenyl)amino)-3-cyanoquinolin-6-yl)amino)methyl)phenyl)acetamide] was tested, and the EC50 [1] was 266 nM and the IC50 [2] was 3 nM.

Work on N#Cc1cnc2c(Cl)cc(N[C@@H](c3ccccc3)c3cn(C4CCN(C5COC5)CC4)nn3)cc2c1Nc1ccc(Cl)c(Cl)c1F [Example 625, (S)-8-chloro-4-((3,4-dichloro-2-fluorophenyl)amino)-6-(((1-(1-(oxetan-3-yl)piperidin-4-yl)-1H-1,2,3-triazol-4-yl)(phenyl)methyl)amino) quinoline-3-carbonitrile] yielded an EC50 [1] of 1160 nM and an IC50 [2] of 116 nM.

CC[C@@H](Nc1c(C#N)cnc2c(Cl)cc(N[C@H](c3ccccc3)c3c[nH]nn3)cc12)c1ccccc1 [Example 626, 8-chloro-6-(((R)-phenyl(1H-1,2,3-triazol-4-yl)methyl)amino)-4-(((R)-1-phenylpropyl)amino) quinoline-3-carbonitrile] gave an EC50 [1] greater than 50000 nM and an IC50 [2] of 784 nM.

With CC[C@@H](Nc1c(C#N)cnc2c(Cl)cc(N[C@@H](c3ccccc3)c3c[nH]nn3)cc12)c1ccccc1 [Example 627, 8-chloro-6-(((S)-phenyl(1H-1,2,3-triazol-4-yl)methyl)amino)-4-(((R)-1-phenylpropyl)amino) quinoline-3-carbonitrile] the EC50 [1] was 456 nM and the IC50 [2] was 16 nM.

In the case of CC(C)(C)N1CCC(n2cc([C@@H](Nc3cc(Cl)c4ncc(C#N)c(Nc5cccc(Cl)c5F)c4c3)c3ccccc3)nn2)CC1 [Example 628, (S)-6-(((1-(1-(tert-butyl)piperidin-4-yl)-1H-1,2,3-triazol-4-yl)(phenyl)methyl)amino)-8-chloro-4-((3-chloro-2-fluorophenyl)amino)quinoline-3-carbonitrile], the EC50 [1] is reported as 109 nM and the IC50 [2] is reported as 7 nM.

For CC[C@@H](Nc1c(C#N)cnc2c(Cl)cc(N[C@@H](c3ccccc3)c3cn(C4CCN(C(C)(C)C)CC4)nn3)cc12)c1ccccc1 [Example 629, 6-(((S)-(1-(1-(tert-butyl)piperidin-4-yl)-1H-1,2,3-triazol-4-yl)(phenyl)methyl)amino)-8-chloro-4-(((R)-1-phenylpropyl)amino)quinoline-3-carbonitrile], the EC50 [1] was 72 nM and the IC50 [2] was 3 nM.

With Cn1ccnc1-c1cccc([C@H](Nc2cc(Cl)c3ncc(C#N)c(Nc4ccc(F)c(Cl)c4)c3c2)c2cn(C3CCN(C(C)(C)C)CC3)nn2)c1 [Example 630, (S)-6-(((1-(1-(tert-butyl)piperidin-4-yl)-1H-1,2,3-triazol-4-yl)(3-(1-methyl-1H-imidazol-2-yl)phenyl)methyl)amino)-8-chloro-4-((3-chloro-4-fluorophenyl)amino)quinoline-3-carbonitrile] the EC50 [1] was 1630 nM and the IC50 [2] was 3 nM.

Compound N#Cc1cnc2c(Cl)cc(N[C@@H](c3ccc(Cl)cc3)c3c[nH]nn3)cc2c1Nc1ccc(F)c(F)c1F [Example 631, (S)-8-chloro-6-(((4-chlorophenyl)(1H-1,2,3-triazol-4-yl)methyl)amino)-4-((2,3,4-trifluorophenyl)amino)quinoline-3-carbonitrile] has an EC50 [1] of 1080 nM and an IC50 [2] of 166 nM.

For CC(C)(C)N1CCC(n2cc([C@@H](Nc3cc(Cl)c4ncc(C#N)c(Nc5ccc(F)c(Cl)c5)c4c3)c3cccc(-c4nccs4)c3)nn2)CC1 [Example 632, (S)-6-(((1-(1-(tert-butyl)piperidin-4-yl)-1H-1,2,3-triazol-4-yl)(3-(thiazol-2-yl)phenyl)methyl)amino)-8-chloro-4-((3-chloro-4-fluorophenyl)amino)quinoline-3-carbonitrile], the EC50 [1] was 163 nM and the IC50 [2] was 3 nM.

In the case of C[C@@H](Nc1c(C#N)cnc2c(Cl)cc(N[C@@H](c3ccccc3)c3cn(C4CCN(C(C)(C)C)CC4)nn3)cc12)c1cccc(F)c1 [Example 633, 6-(((S)-(1-(1-(tert-butyl)piperidin-4-yl)-1H-1,2,3-triazol-4-yl)(phenyl)methyl)amino)-8-chloro-4-(((R)-1-(3-fluorophenyl)ethyl)amino) quinoline-3-carbonitrile], the EC50 [1] is reported as 1580 nM and the IC50 [2] is reported as 10 nM.

C[C@@H](Nc1c(C#N)cnc2c(Cl)cc(N[C@@H](c3ccccc3)c3cn(C4CCN(C(C)(C)C)CC4)nn3)cc12)c1ccc(F)cc1 [Example 634, 6-(((S)-(1-(1-(tert-butyl)piperidin-4-yl)-1H-1,2,3-triazol-4-yl)(phenyl)methyl)amino)-8-chloro-4-(((R)-1-(4-fluorophenyl)ethyl)amino) quinoline-3-carbonitrile] was tested, and the EC50 [1] was 3090 nM and the IC50 [2] was 30 nM.

With CC(C)(C)N1CCC(n2cc([C@@H](Nc3cc(Cl)c4ncc(C#N)c(NC5C6CC7CC(C6)CC5C7)c4c3)c3ccccc3)nn2)CC1 (stereo partly drawn) [Example 635, 4-(((1S,3S,5S,7S)-adamantan-2-yl)amino)-6-(((S)-(1-(1-(tert-butyl)piperidin-4-yl)-1H-1,2,3-triazol-4-yl)(phenyl)methyl)amino)-8-chloroquinoline-3-carbonitrile] the EC50 [1] was 1080 nM and the IC50 [2] was 13 nM.

CC(C)(C)N1CCC(n2cc([C@@H](Nc3cc(Cl)c4ncc(C#N)c(NC56CCC7CC(CC(C7)C5)C6)c4c3)c3ccccc3)nn2)CC1 [Example 636, 6-(((S)-(1-(1-(tert-butyl)piperidin-4-yl)-1H-1,2,3-triazol-4-yl)(phenyl)methyl)amino)-8-chloro-4-(((1R,3r,6S,8S)-tricyclo[4.3.1.13,8]undecan-3-yl)amino)quinoline-3-carbonitrile] showed an EC50 [1] of 2390 nM and an IC50 [2] of 143 nM.

For CC(C)(C)N1CCC(n2cc([C@@H](Nc3cc(Cl)c4ncc(C#N)c(NC56CC7CC(CC(C7)C5)C6)c4c3)c3ccccc3)nn2)CC1 [Example 637, 4-(((3R,5R,7R)-adamantan-1-yl)amino)-6-(((S)-(1-(1-(tert-butyl)piperidin-4-yl)-1H-1,2,3-triazol-4-yl)(phenyl)methyl)amino)-8-chloroquinoline-3-carbonitrile], the EC50 [1] was 1280 nM and the IC50 [2] was 36 nM.

N#Cc1cnc2c(Cl)cc(N[C@@H](c3ccc(Cl)cc3)c3c[nH]nn3)cc2c1Nc1ccc2c(cnn2Cc2ccccc2)c1 [Example 638, (S)-4-((1-benzyl-1H-indazol-5-yl)amino)-8-chloro-6-(((4-chlorophenyl)(1H-1,2,3-triazol-4-yl)methyl)amino)quinoline-3-carbonitrile] gave an EC50 [1] of 2650 nM and an IC50 [2] greater than 10000 nM.

N#Cc1cnc2c(Cl)cc(N[C@@H](c3ccc(Cl)cc3)c3c[nH]nn3)cc2c1Nc1cc(Cl)ccc1F [Example 639, (S)-8-chloro-4-((5-chloro-2-fluorophenyl)amino)-6-(((4-chlorophenyl)(1H-1,2,3-triazol-4-yl)methyl)amino)quinoline-3-carbonitrile] gave an EC50 [1] of 1710 nM and an IC50 [2] of 664 nM.

N#Cc1cnc2c(Cl)cc(N[C@@H](c3ccc(Cl)cc3)c3c[nH]nn3)cc2c1Nc1c(F)cccc1F [Example 640, (S)-8-chloro-6-(((4-chlorophenyl)(1H-1,2,3-triazol-4-yl)methyl)amino)-4-((2,6-difluorophenyl)amino)quinoline-3-carbonitrile] showed an EC50 [1] of 2840 nM and an IC50 [2] of 2340 nM.

N#Cc1cnc2c(Cl)cc(NC(c3ccccc3)c3cn(C4CCNCC4)cn3)cc2c1Nc1ccc(F)c(Cl)c1 (centres unmarked) [Example 642, 8-chloro-4-((3-chloro-4-fluorophenyl)amino)-6-((phenyl (1-(piperidin-4-yl)-1H-imidazo-4-yl)methyl)amino)quinoline-3-carbonitrile] gave an EC50 [1] of 383 nM and an IC50 [2] of 17 nM.

Compound CC(C)(C)N1CCC(n2cc([C@@H](Nc3cc(Cl)c4ncc(C#N)c(Nc5ccc(F)c(Cl)c5)c4c3)c3cccc(I)c3)nn2)CC1 [Example 643] has an EC50 [1] of 151 nM and an IC50 [2] of 7 nM.
